Assay results published in PubChem BioAssay AID1963861 (Molecular Pharmacology Branch, DTP, NCI, 2024).

System: 885724-159-R-J1-PDC KRAS PDC multicell spheroid viability
Test: Anticancer human tumor 885724-159-R-J1-PDC patient-derived pancreatic adenocarcinoma cell line growth inhibition [KRAS2]
Conditions: for IC50: curve of first compound; for viability, T/C: stronger effect = lower value
Text: Multicellular complex tumor spheroid response to RAS pathway inhibitors in combination with a targeted agents in patient-derived cell lines with oncogenic KRAS variants from multiple cancer types
A high-throughput screen of multi-cell type tumor spheroids was designed to identify active combinations of targeted small molecules and KRAS pathway inhibitors. Complex spheroids include a stromal component modeled by human endothelial cells (HUVEC) and fibroblasts modeled by human mesenchymal stem cells (MSCs). The concentration ranges selected for each drug and investigational agent were based upon clinically achievable concentrations if the clinical Cmax of the agent was known.
Compounds. The drugs and investigational agents: BI-3406 (NSC825286), BAY-293 (NSC824723), batoprotafib (TNO155; NSC825523), sotorasib (AMG 510; NSC818433), MRTX1257 (NSC819558), elimusertib (BAY 1895344; NSC800525), molibresib (GSK525762; NSC774829), temuterkib (LY3214996; NSC803410), venetoclax (NSC766270), alisertib (NSC759677), olaparib (NSC753686), talazoparib (NSC767125), erdafitinib (NSC781556), ipatasertib (NSC767898), cabozantinib (NSC761068), nintedanib (NSC756659), abemaciclib (NSC768073), docetaxel (NSC628503), trametinib (NSC758246), and sapanisertib (NSC764658) were obtained from the National Cancer Institute (NCI) Developmental Therapeutics Program Chemical Repository. The FDA-approved anticancer drug set is available from the Developmental Therapeutics Program. […] The stock solutions were prepared in dimethyl sulfoxide (DMSO, Sigma-Aldrich, St. Louis, MO, cat. D2650) at 800-fold the tested concentration and stored at -70 degrees C prior to their use. All drugs and investigational agents were tested over a range starting from a high concentration at or near the clinical Cmax and decreasing in half-log increments. If the clinical Cmax for an agent had not been determined, the highest concentration tested was 10 microM.
Cell Culture. All cells were maintained in an incubator at 37 degrees C and 5% CO2 with 95% humidity. The PDC lines were cultured according to standard operating procedures established by the NCI PDMR (https://pdmr.cancer.gov/sops/default.htm). Briefly, all PDCs were thawed and cultured in Matrigel-coated flasks prepared with a working solution of 1X Ham's F-12 nutrient mix, without supplementation (Invitrogen, Waltham, MA, cat. 11765054), 100 U/mL penicillin-streptomycin (Invitrogen, cat. 15140122), and 2.5% Matrigel (Corning Inc., Corning, NY, cat. 354248) for the first three passages. All PDCs were cultured in complete DMEM/F-12 media containing advanced DMEM/F-12 (Invitrogen, cat. 12634028), 4.9% defined fetal bovine serum, heat inactivated (HyClone Laboratories Inc., Logan, UT, cat. SH30070.03HI), 389 ng/mL hydrocortisone (Sigma-Aldrich, cat. H4001), 9.7 ng/mL human EGF recombinant protein (Invitrogen, cat. PHG0313), 23.4 microg/mL adenine (Sigma-Aldrich, cat. A2786), 97.3 U/mL penicillin-streptomycin (Invitrogen, cat. 15140122), 1.9 mM L-glutamine (Invitrogen, cat. 25030081), and 9.7 microM Y-27632 dihydrochloride (Tocris Bioscience, Bristol, United Kingdom, cat. 1254). The PDCs were cultured in complete DMEM/F12 media without 9.7 microM Y-27632 dihydrochloride for at least two passages prior to the screen. The established cell line HOP-62 was cultured in RPMI 1640 medium, HEPES (Invitrogen, cat. 22400105) with 10% defined fetal bovine serum (HyClone Laboratories Inc., cat. SH30070.03) and 2 mM L-glutamine (Invitrogen, cat. 25030081). The pooled donor HUVEC were cultured in endothelial cell growth medium 2 (PromoCell, Heidelberg, Germany, cat. C-22011) and the hMSC were cultured in mesenchymal stem cell growth medium 2 (PromoCell, cat. C-28009). For all experiments, HUVEC and hMSC were used at passages </=5, while the malignant cell lines were used at passages </=15. […]

[1] = second compound 0.1 µM, first compound 0.0316 µM
[2] = second compound 0.1 µM, first compound 0.1 µM
[3] = second compound 0.316 µM, first compound 0.0316 µM
[4] = second compound 0.316 µM, first compound 0.1 µM
[5] = second compound 1 µM, first compound 0.0316 µM
[6] = second compound 1 µM, first compound 0.1 µM
[7] = second compound 3.16 µM, first compound 0.0316 µM
[8] = second compound 3.16 µM, first compound 0.1 µM
[9] = second compound 10 µM, first compound 0.0316 µM
[10] = second compound 10 µM, first compound 0.1 µM
[11] = second compound 0.1 µM, first compound 0.316 µM
[12] = second compound 0.1 µM, first compound 1 µM
[13] = second compound 0.1 µM, first compound 3.16 µM
[14] = second compound 0.1 µM, first compound 10 µM
[15] = second compound 0.316 µM, first compound 0.316 µM
[16] = second compound 0.316 µM, first compound 1 µM
[17] = second compound 0.316 µM, first compound 3.16 µM
[18] = second compound 0.316 µM, first compound 10 µM
[19] = second compound 1 µM, first compound 0.316 µM
[20] = second compound 1 µM, first compound 1 µM
[21] = second compound 1 µM, first compound 3.16 µM
[22] = second compound 1 µM, first compound 10 µM
[23] = second compound 3.16 µM, first compound 0.316 µM
[24] = second compound 3.16 µM, first compound 1 µM
[25] = second compound 3.16 µM, first compound 3.16 µM
[26] = second compound 3.16 µM, first compound 10 µM
[27] = second compound 10 µM, first compound 0.316 µM
[28] = second compound 10 µM, first compound 1 µM
[29] = second compound 10 µM, first compound 3.16 µM
[30] = second compound 10 µM, first compound 10 µM
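Note: spheroids exposed to agents for 7 days before readout.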

| SMILES | IC50 (second compound 0.1 µM) [µM] | IC50 (second compound 0.316 µM) [µM] | IC50 (second compound 1 µM) [µM] | IC50 (second compound 3.16 µM) [µM] | IC50 (second compound 10 µM) [µM] | viability, T/C [1] [%] | viability, T/C [2] [%] | viability, T/C [3] [%] | viability, T/C [4] [%] | viability, T/C [5] [%] | viability, T/C [6] [%] | viability, T/C [7] [%] | viability, T/C [8] [%] | viability, T/C [9] [%] | viability, T/C [10] [%] | viability, T/C [11] [%] | viability, T/C [12] [%] | viability, T/C [13] [%] | viability, T/C [14] [%] | viability, T/C [15] [%] | also measured |
| --- | --- | --- | --- | --- | --- | --- | --- | --- | --- | --- | --- | --- | --- | --- | --- | --- | --- | --- | --- | --- | --- |
| CN(C)C/C=C/C(=O)Nc1cc2c(Nc3ccc(F)c(Cl)c3)ncnc2cc1O[C@H]1CCOC1 + C=CC(=O)N1CCN(c2nc(=O)n(-c3c(C)ccnc3C(C)C)c3nc(-c4c(O)cccc4F)c(F)cc23)C(C)C1 | > 0.1 | > 0.1 | > 0.1 | > 0.1 | > 0.1 | 90.8 | 79.9 | 92.6 | 86 | 93.7 | 90.8 | 101 | 89.4 | 66.2 | 69.4 | – | – | – | – | – | viability, T/C (second compound 0.1 µM, first compound 0.000316 µM): 116%; viability, T/C (second compound 0.1 µM, first compound 0.001 µM): 117%; viability, T/C (second compound 0.1 µM, first compound 0.00316 µM): 106%; viability, T/C (second compound 0.1 µM, first compound 0.01 µM): 95.4%; viability, T/C (second compound 0.316 µM, first compound 0.000316 µM): 124%; viability, T/C (second compound 0.316 µM, first compound 0.001 µM): 118%; viability, T/C (second compound 0.316 µM, first compound 0.00316 µM): 101%; viability, T/C (second compound 0.316 µM, first compound 0.01 µM): 101%; viability, T/C (second compound 1 µM, first compound 0.000316 µM): 130%; viability, T/C (second compound 1 µM, first compound 0.001 µM): 119%; viability, T/C (second compound 1 µM, first compound 0.00316 µM): 117%; viability, T/C (second compound 1 µM, first compound 0.01 µM): 110%; viability, T/C (second compound 3.16 µM, first compound 0.000316 µM): 114%; viability, T/C (second compound 3.16 µM, first compound 0.001 µM): 117%; viability, T/C (second compound 3.16 µM, first compound 0.00316 µM): 104%; viability, T/C (second compound 3.16 µM, first compound 0.01 µM): 97%; viability, T/C (second compound 10 µM, first compound 0.000316 µM): 89.4%; viability, T/C (second compound 10 µM, first compound 0.001 µM): 95%; viability, T/C (second compound 10 µM, first compound 0.00316 µM): 83.2%; viability, T/C (second compound 10 µM, first compound 0.01 µM): 78.3% |
| COC(=O)c1ccc2c(C(=Nc3ccc(N(C)C(=O)CN4CCN(C)CC4)cc3)c3ccccc3)c(O)[nH]c2c1 + C=CC(=O)N1CCN(c2nc(=O)n(-c3c(C)ccnc3C(C)C)c3nc(-c4c(O)cccc4F)c(F)cc23)C(C)C1 | 3.15 | 2.27 | 2.07 | 2.11 | 1.54 | 109 | 111 | 105 | 109 | 113 | 111 | 106 | 110 | 89.7 | 70.4 | 102 | 103 | 49.8 | 1.26 | 102 | viability, T/C [16]: 104%; viability, T/C [17]: 28.1%; viability, T/C [18]: 0.55%; viability, T/C [19]: 110%; viability, T/C [20]: 98.6%; viability, T/C [21]: 21.9%; viability, T/C [22]: 0.74%; viability, T/C [23]: 105%; viability, T/C [24]: 95.7%; viability, T/C [25]: 25.1%; viability, T/C [26]: 0.65%; viability, T/C [27]: 79.1%; viability, T/C [28]: 69.9%; viability, T/C [29]: 17.2%; viability, T/C [30]: 0.39% |
| O=C(c1cc(Cc2n[nH]c(=O)c3ccccc23)ccc1F)N1CCN(C(=O)C2CC2)CC1 + C=CC(=O)N1CCN(c2nc(=O)n(-c3c(C)ccnc3C(C)C)c3nc(-c4c(O)cccc4F)c(F)cc23)C(C)C1 | > 10 | > 10 | > 10 | > 10 | > 10 | 117 | 115 | 124 | 115 | 121 | 119 | 114 | 119 | 86 | 84.8 | 111 | 113 | 109 | 94.1 | 115 | viability, T/C [16]: 113%; viability, T/C [17]: 108%; viability, T/C [18]: 103%; viability, T/C [19]: 117%; viability, T/C [20]: 118%; viability, T/C [21]: 114%; viability, T/C [22]: 100%; viability, T/C [23]: 122%; viability, T/C [24]: 117%; viability, T/C [25]: 111%; viability, T/C [26]: 93.5%; viability, T/C [27]: 85.4%; viability, T/C [28]: 79%; viability, T/C [29]: 90.9%; viability, T/C [30]: 71% |
